We go through one substance from EP4545550B1, “INSECT NEUROPEPTIDES” (Solasta Bio Limited, priority 2023, dated 2025).

The assay has as its system Spodoptera frugiperda. As to the kind of experiment: Lepidoptera artificial diet assay. The assay is classed as in vivo. The conditions noted are these: unformulated peptide, final concentration 1x10^-4 M in artificial diet, one L1 larva per cell, n=10, after 168 hours; compared to the insecticide DDT and negative control vehicle. The text has this: Frontier Lepidoptera artificial diet was made up by preparing agar at 1% and then mixing it with artificial diet powder. Peptide solution was aliquoted in 10 cells and diet poured straight onto it. The final concentration of the peptide was 1x10^-4 M, and each peptide was aliquoted in 10 cells. Once the diet solidified and cooled down, one L1 larvae was infested in each cell. The trays were sealed with heat and let larva were allowed to develop for 168 hrs. Finally, pupation and mortality were scored for. Lepidoptera artificial diet assays were performed with SB-P-80, and compared to a negative control vehicle and the insecticide dichlorodiphenyltrichloroethane (DDT).

Turning to “H-NADEDQQQSVDFTPRL-NH2 [SB-P-80, [Hy]-NADEDQQQSVDFTPRL-[NH2]]”, the “activity (pupation and mortality scored)” value is listed as “much higher activity”.
